{"source": "the supplement of paper PMC10307832", "experiment_in_all_cases": "relative viability (nuclei count vs DMSO), 5 days (fraction); higher = more cells survive", "key": {"[1]": {"tested_on": "A-427", "procedure,_shortened": "(§1)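 Lung cancer cell lines were pin-tool dosed in 1536-well plates on the day after seeding, with either a lone drug or a fixed anchor-drug dose plus five library-drug doses (not always all listed) in √10 steps. Nuclei were counted on 4× images after 5 days. Relative viability is the ratio of treated-well to vehicle-well nuclei counts, with each value a median of duplicate plates.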"}, "[2]": {"tested_on": "CAL-12T", "procedure,_shortened": "as §1"}, "[3]": {"tested_on": "COR-L 105", "procedure,_shortened": "as §1"}, "[4]": {"tested_on": "EMC-BAC-2", "procedure,_shortened": "as §1"}, "[5]": {"tested_on": "HARA", "procedure,_shortened": "as §1"}, "[6]": {"tested_on": "HCC-366", "procedure,_shortened": "as §1"}, "[7]": {"tested_on": "HCC-827", "procedure,_shortened": "as §1"}, "[8]": {"tested_on": "HOP-62", "procedure,_shortened": "as §1"}, "[9]": {"tested_on": "LCLC-103H", "procedure,_shortened": "as §1"}, "[10]": {"tested_on": "NCI-H1395", "procedure,_shortened": "as §1"}, "[11]": {"tested_on": "NCI-H1437", "procedure,_shortened": "as §1"}, "[12]": {"tested_on": "NCI-H1755", "procedure,_shortened": "as §1"}, "[13]": {"tested_on": "NCI-H1792", "procedure,_shortened": "as §1"}, "[14]": {"tested_on": "NCI-H1915", "procedure,_shortened": "as §1"}, "[15]": {"tested_on": "NCI-H2009", "procedure,_shortened": "as §1"}, "[16]": {"tested_on": "NCI-H2228", "procedure,_shortened": "as §1"}, "[17]": {"tested_on": "NCI-H23", "procedure,_shortened": "as §1"}, "[18]": {"tested_on": "NCI-H460", "procedure,_shortened": "as §1"}, "[19]": {"tested_on": "NCI-H727", "procedure,_shortened": "as §1"}, "[20]": {"tested_on": "SK-LU-1", "procedure,_shortened": "as §1"}, "[21]": {"tested_on": "SW 1573", "procedure,_shortened": "as §1"}}, "data": [{"compound": "Cc1sc2c(c1C)C(c1ccc(Cl)cc1)=N[C@@H](CC(=O)OC(C)(C)C)c1nnc(C)n1-2", "note": "[JQ1] + CS(=O)(=O)N1CCN(Cc2cc3nc(-c4cccc5[nH]ncc45)nc(N4CCOCC4)c3s2)CC1 [Pictilisib] (partner 1 µM)", "values": [{"measurement": "relative viability", "setting": "[1]; first compound 0.04 µM", "value": 0.81}, {"measurement": "relative viability", "setting": "[1]; first compound 0.1265 µM", "value": 0.748}, {"measurement": "relative viability", "setting": "[1]; first compound 0.4 µM", "value": 0.674}, {"measurement": "relative viability", "setting": "[1]; first compound 1.265 µM", "value": 0.511}, {"measurement": "relative viability", "setting": "[1]; first compound 4 µM", "value": 0.465}, {"measurement": "relative viability", "setting": "[2]; first compound 0.04 µM", "value": 0.414}, {"measurement": "relative viability", "setting": "[2]; first compound 0.4 µM", "value": 0.457}, {"measurement": "relative viability", "setting": "[2]; first compound 1.265 µM", "value": 0.293}, {"measurement": "relative viability", "setting": "[2]; first compound 4 µM", "value": 0.36}, {"measurement": "relative viability", "setting": "[3]; first compound 0.04 µM", "value": 0.374}, {"measurement": "relative viability", "setting": "[3]; first compound 0.1265 µM", "value": 0.264}, {"measurement": "relative viability", "setting": "[3]; first compound 0.4 µM", "value": 0.312}, {"measurement": "relative viability", "setting": "[3]; first compound 1.265 µM", "value": 0.304}, {"measurement": "relative viability", "setting": "[3]; first compound 4 µM", "value": 0.327}, {"measurement": "relative viability", "setting": "[4]; first compound 0.04 µM", "value": 0.551}, {"measurement": "relative viability", "setting": "[4]; first compound 0.1265 µM", "value": 0.499}, {"measurement": "relative viability", "setting": "[4]; first compound 0.4 µM", "value": 0.565}, {"measurement": "relative viability", "setting": "[4]; first compound 1.265 µM", "value": 0.27}, {"measurement": "relative viability", "setting": "[4]; first compound 4 µM", "value": 0.26}, {"measurement": "relative viability", "setting": "[5]; first compound 0.04 µM", "value": 0.505}, {"measurement": "relative viability", "setting": "[5]; first compound 0.1265 µM", "value": 0.224}, {"measurement": "relative viability", "setting": "[5]; first compound 0.4 µM", "value": 0.379}, {"measurement": "relative viability", "setting": "[5]; first compound 1.265 µM", "value": 0.177}, {"measurement": "relative viability", "setting": "[5]; first compound 4 µM", "value": 0.0809}, {"measurement": "relative viability", "setting": "[6]; first compound 0.04 µM", "value": 0.136}, {"measurement": "relative viability", "setting": "[6]; first compound 0.1265 µM", "value": 0.156}, {"measurement": "relative viability", "setting": "[6]; first compound 0.4 µM", "value": 0.131}, {"measurement": "relative viability", "setting": "[6]; first compound 1.265 µM", "value": 0.153}, {"measurement": "relative viability", "setting": "[6]; first compound 4 µM", "value": 0.196}, {"measurement": "relative viability", "setting": "[7]; first compound 0.04 µM", "value": 1.06}, {"measurement": "relative viability", "setting": "[7]; first compound 0.4 µM", "value": 0.544}, {"measurement": "relative viability", "setting": "[7]; first compound 1.265 µM", "value": 0.911}, {"measurement": "relative viability", "setting": "[7]; first compound 4 µM", "value": 0.752}, {"measurement": "relative viability", "setting": "[8]; first compound 0.04 µM", "value": 0.815}, {"measurement": "relative viability", "setting": "[8]; first compound 0.1265 µM", "value": 0.56}, {"measurement": "relative viability", "setting": "[8]; first compound 0.4 µM", "value": 0.249}, {"measurement": "relative viability", "setting": "[8]; first compound 1.265 µM", "value": 0.0959}, {"measurement": "relative viability", "setting": "[8]; first compound 4 µM", "value": 0.101}, {"measurement": "relative viability", "setting": "[9]; first compound 0.04 µM", "value": 0.571}, {"measurement": "relative viability", "setting": "[9]; first compound 0.1265 µM", "value": 0.522}, {"measurement": "relative viability", "setting": "[9]; first compound 0.4 µM", "value": 0.537}, {"measurement": "relative viability", "setting": "[9]; first compound 1.265 µM", "value": 0.4}, {"measurement": "relative viability", "setting": "[9]; first compound 4 µM", "value": 0.352}, {"measurement": "relative viability", "setting": "[10]; first compound 0.04 µM", "value": 0.652}, {"measurement": "relative viability", "setting": "[10]; first compound 0.1265 µM", "value": 0.582}, {"measurement": "relative viability", "setting": "[10]; first compound 0.4 µM", "value": 0.62}, {"measurement": "relative viability", "setting": "[10]; first compound 1.265 µM", "value": 0.403}, {"measurement": "relative viability", "setting": "[10]; first compound 4 µM", "value": 0.407}, {"measurement": "relative viability", "setting": "[11]; first compound 0.04 µM", "value": 0.405}, {"measurement": "relative viability", "setting": "[11]; first compound 0.1265 µM", "value": 0.237}, {"measurement": "relative viability", "setting": "[11]; first compound 0.4 µM", "value": 0.233}, {"measurement": "relative viability", "setting": "[11]; first compound 1.265 µM", "value": 0.157}, {"measurement": "relative viability", "setting": "[11]; first compound 4 µM", "value": 0.168}, {"measurement": "relative viability", "setting": "[12]; first compound 0.04 µM", "value": 0.404}, {"measurement": "relative viability", "setting": "[12]; first compound 0.1265 µM", "value": 0.419}, {"measurement": "relative viability", "setting": "[12]; first compound 0.4 µM", "value": 0.421}, {"measurement": "relative viability", "setting": "[12]; first compound 1.265 µM", "value": 0.208}, {"measurement": "relative viability", "setting": "[12]; first compound 4 µM", "value": 0.185}, {"measurement": "relative viability", "setting": "[13]; first compound 0.04 µM", "value": 0.273}, {"measurement": "relative viability", "setting": "[13]; first compound 0.4 µM", "value": 0.31}, {"measurement": "relative viability", "setting": "[13]; first compound 1.265 µM", "value": 0.188}, {"measurement": "relative viability", "setting": "[13]; first compound 4 µM", "value": 0.174}, {"measurement": "relative viability", "setting": "[14]; first compound 0.04 µM", "value": 0.89}, {"measurement": "relative viability", "setting": "[14]; first compound 0.1265 µM", "value": 0.872}, {"measurement": "relative viability", "setting": "[14]; first compound 0.4 µM", "value": 0.758}, {"measurement": "relative viability", "setting": "[14]; first compound 1.265 µM", "value": 0.494}, {"measurement": "relative viability", "setting": "[14]; first compound 4 µM", "value": 0.226}, {"measurement": "relative viability", "setting": "[15]; first compound 0.04 µM", "value": 0.767}, {"measurement": "relative viability", "setting": "[15]; first compound 0.1265 µM", "value": 0.534}, {"measurement": "relative viability", "setting": "[15]; first compound 0.4 µM", "value": 0.33}, {"measurement": "relative viability", "setting": "[15]; first compound 1.265 µM", "value": 0.205}, {"measurement": "relative viability", "setting": "[15]; first compound 4 µM", "value": 0.245}, {"measurement": "relative viability", "setting": "[16]; first compound 0.04 µM", "value": 0.372}, {"measurement": "relative viability", "setting": "[16]; first compound 0.1265 µM", "value": 0.327}, {"measurement": "relative viability", "setting": "[16]; first compound 0.4 µM", "value": 0.259}, {"measurement": "relative viability", "setting": "[16]; first compound 1.265 µM", "value": 0.245}, {"measurement": "relative viability", "setting": "[16]; first compound 4 µM", "value": 0.201}, {"measurement": "relative viability", "setting": "[17]; first compound 0.04 µM", "value": 0.46}, {"measurement": "relative viability", "setting": "[17]; first compound 0.1265 µM", "value": 0.453}, {"measurement": "relative viability", "setting": "[17]; first compound 0.4 µM", "value": 0.447}, {"measurement": "relative viability", "setting": "[17]; first compound 1.265 µM", "value": 0.162}, {"measurement": "relative viability", "setting": "[17]; first compound 4 µM", "value": 0.183}, {"measurement": "relative viability", "setting": "[18]; first compound 0.04 µM", "value": 0.398}, {"measurement": "relative viability", "setting": "[18]; first compound 0.4 µM", "value": 0.276}, {"measurement": "relative viability", "setting": "[18]; first compound 1.265 µM", "value": 0.204}, {"measurement": "relative viability", "setting": "[18]; first compound 4 µM", "value": 0.135}, {"measurement": "relative viability", "setting": "[19]; first compound 0.04 µM", "value": 0.371}, {"measurement": "relative viability", "setting": "[19]; first compound 0.1265 µM", "value": 0.554}, {"measurement": "relative viability", "setting": "[19]; first compound 0.4 µM", "value": 0.205}, {"measurement": "relative viability", "setting": "[19]; first compound 1.265 µM", "value": 0.233}, {"measurement": "relative viability", "setting": "[19]; first compound 4 µM", "value": 0.309}, {"measurement": "relative viability", "setting": "[20]; first compound 0.04 µM", "value": 0.581}, {"measurement": "relative viability", "setting": "[20]; first compound 0.1265 µM", "value": 0.438}, {"measurement": "relative viability", "setting": "[20]; first compound 0.4 µM", "value": 0.456}, {"measurement": "relative viability", "setting": "[20]; first compound 1.265 µM", "value": 0.256}, {"measurement": "relative viability", "setting": "[20]; first compound 4 µM", "value": 0.171}, {"measurement": "relative viability", "setting": "[21]; first compound 0.04 µM", "value": 0.486}, {"measurement": "relative viability", "setting": "[21]; first compound 0.1265 µM", "value": 0.443}, {"measurement": "relative viability", "setting": "[21]; first compound 0.4 µM", "value": 0.421}, {"measurement": "relative viability", "setting": "[21]; first compound 1.265 µM", "value": 0.212}, {"measurement": "relative viability", "setting": "[21]; first compound 4 µM", "value": 0.221}]}]}
